Laboratory results taken from ChEMBL document CHEMBL1124272, “Only one pharmacophore is required for the kappa opioid antagonist selectivity of norbinaltorphimine” (J Med Chem, 1988).

Assays:
[1] = target: Delta-type opioid receptor (Homo sapiens) (UniProt P41143); details: Cavia porcellus; Ileum; 20 nM
Description: Antagonistic activity at Opioid receptor delta 1 in electrically stimulated Guinea pig ileum using DADLE as the agonist at 20 nM

[2] = target: Mu-type opioid receptor (Cavia porcellus) (UniProt P97266); details: Ileum, 20 nM
Description: Antagonistic activity at Opioid receptor mu 1 in electrically stimulated Guinea pig ileum using morphine as the agonist at 20 nM concentration

[3] = target: Kappa-type opioid receptor (Cavia porcellus) (UniProt P41144); details: Ileum, 20 nM
Chain of Kappa-type opioid receptor (Cavia porcellus) (P41144 whole entry): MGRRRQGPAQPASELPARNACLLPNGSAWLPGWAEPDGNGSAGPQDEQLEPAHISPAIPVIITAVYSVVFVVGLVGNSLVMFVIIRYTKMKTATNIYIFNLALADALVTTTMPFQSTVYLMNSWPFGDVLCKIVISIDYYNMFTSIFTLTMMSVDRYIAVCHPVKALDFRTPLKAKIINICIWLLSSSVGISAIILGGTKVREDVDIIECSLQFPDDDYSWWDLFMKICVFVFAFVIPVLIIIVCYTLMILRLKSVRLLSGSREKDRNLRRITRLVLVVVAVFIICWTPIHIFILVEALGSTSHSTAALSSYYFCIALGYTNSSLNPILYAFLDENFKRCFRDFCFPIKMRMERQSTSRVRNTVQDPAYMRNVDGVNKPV
Description: Antagonistic activity at Opioid receptor kappa 1 in electrically stimulated Guinea pig ileum using ethylketazocine as the agonist at 20 nM concentration

[4] = target: Delta-type opioid receptor (Homo sapiens) (UniProt P41143); details: Cavia porcellus; Ileum; 20 nM; remark: listed apart in the source
Description: Antagonistic activity at Opioid receptor delta 1 in electrically stimulated Guinea pig ileum using DADLE as the agonist at 20 nM concentration

[5] = target: Mu-type opioid receptor (Cavia porcellus) (UniProt P97266); details: Ileum, 100 nM
Description: Antagonistic activity at Opioid receptor mu 1 in electrically stimulated Guinea pig ileum using morphine as the agonist at 100 nM

Chain of Delta-type opioid receptor (Homo sapiens) (P41143 whole entry): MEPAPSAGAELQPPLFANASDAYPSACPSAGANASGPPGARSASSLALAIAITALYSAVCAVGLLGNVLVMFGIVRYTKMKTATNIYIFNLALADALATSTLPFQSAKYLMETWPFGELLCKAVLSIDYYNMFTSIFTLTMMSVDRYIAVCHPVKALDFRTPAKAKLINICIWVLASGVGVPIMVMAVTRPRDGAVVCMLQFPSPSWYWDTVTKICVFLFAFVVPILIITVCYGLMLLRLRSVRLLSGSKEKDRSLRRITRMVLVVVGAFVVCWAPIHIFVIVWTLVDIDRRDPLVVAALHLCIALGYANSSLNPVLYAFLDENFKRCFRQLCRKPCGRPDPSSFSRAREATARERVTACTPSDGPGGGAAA
Chain of Mu-type opioid receptor (Cavia porcellus) (P97266 whole entry): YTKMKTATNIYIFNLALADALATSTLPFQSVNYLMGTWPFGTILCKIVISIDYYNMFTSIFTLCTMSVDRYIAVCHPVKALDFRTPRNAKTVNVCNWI

Question: How did the Ke [1] turn out when `Oc1ccc2c3c1O[C@H]1c4[nH]c5c(c4C[C@@]4(O)[C@@H](C2)N(CC2CC2)CC[C@]314)C[C@@]1(O)[C@H]2Cc3ccc(O)c4c3[C@@]1(CCN2CC1CC1)[C@H]5O4` was run?
Answer: Its Ke is 10 nM.

Question: Which results are given for `Oc1ccc2c3c1O[C@H]1c4[nH]c5c(c4C[C@@]4(O)[C@@H](C2)N(CC2CC2)CC[C@]314)C[C@]1(O)[C@@H]2Cc3ccc(O)c4c3[C@]1(CCN2CC1CC1)[C@@H]5O4`?
Answer: Ke [2]: 1.1 nM; Ke [3]: 0.08 nM; Ke [4]: 1.3 nM

Question: For `Oc1ccc2c3c1O[C@@H]1c4[nH]c5c(c4C[C@]4(O)[C@H](C2)N(CC2CC2)CC[C@@]314)C[C@]1(O)[C@@H]2Cc3ccc(O)c4c3[C@]1(CCN2CC1CC1)[C@@H]5O4`, which Ke [5] is on record?
Answer: The Ke was 77 nM.
